Experimental data from patent publication US11053230B2, “3-hydroxy-imidazolidin-4-one compounds as inhibitors of indoleamine 2,3-dioxygenase” (Netherlands Translational Research Center B.V., priority 2017, dated 2021).
Values joined by “and” are separate entries in the source; they are usually repeats but may differ in a detail not shown here. Identical values can stand only once.

target: T1, IDO1 (Homo sapiens, UniProt P14902); experiment: Biochemical IDO1 assay (NFK GreenScreen); settings: NFK GreenScreen; 25 nM IDO1, 100 μM L-tryptophan; read-out: IC50, inhibitory potency on IDO1
T1 construct: Recombinant full-length IDO1 (Seegers, N., et al.) and all other assay components were diluted in IDO1 reaction buffer; made in house
T1 sequence (P14902 whole entry): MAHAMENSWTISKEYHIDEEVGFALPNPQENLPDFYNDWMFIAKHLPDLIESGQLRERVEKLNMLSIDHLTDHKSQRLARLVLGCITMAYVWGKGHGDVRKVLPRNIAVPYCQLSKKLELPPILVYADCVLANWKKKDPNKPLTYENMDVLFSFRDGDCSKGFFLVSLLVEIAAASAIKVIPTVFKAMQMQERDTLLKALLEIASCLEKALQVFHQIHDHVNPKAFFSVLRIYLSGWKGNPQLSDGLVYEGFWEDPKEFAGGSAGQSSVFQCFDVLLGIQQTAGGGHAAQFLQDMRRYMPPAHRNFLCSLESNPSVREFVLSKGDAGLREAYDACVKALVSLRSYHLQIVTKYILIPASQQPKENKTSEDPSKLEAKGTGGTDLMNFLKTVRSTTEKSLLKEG
Experimental: Inhibition of IDO1 activity can be measured by determining the enzymatic conversion of L-tryptophan into N-formylkynurenine (NFK) in a reaction mixture containing IDO1 and test compound. The formation of NFK can be detected directly by, for instance, high-performance liquid chromatography (HPLC) methods, or by intrinsic fluorescence.
Compounds were serially diluted in dimethylsulfoxide (DMSO) and finally in IDO1 reaction buffer, consisting of 50 mM NaH2PO4, pH7.0, supplemented with 0.05% Tween-20 (cat. No. P7949; Sigma Aldrich) and 1% glycerol. Recombinant full-length IDO1 (Seegers, N., et al.) and all other assay components were diluted in IDO1 reaction buffer. […] Subsequently, 10 μl of 0.4 mM of the substrate L-tryptophan was added, i.e., the final concentration of L-tryptophan was 100 μM. The DMSO concentration in the assay was 0.3%. […] Incubation was continued for 60 min at room temperature. Then, 10 μl of NFK Green™ (NTRC, Oss, The Netherlands) was added, the plate was sealed, and the reaction was developed for 3 hours at 37° C. To determine the production of N-formyl kynurenine (NFK), the seal was removed and fluorescence was read on an EnVision multimode reader (Perkin Elmer, Waltham, Mass., USA). IC50 were calculated using XLfit™ software (ID Business Solutions, Ltd., Surrey, U.K.).

SMILES | IC50
O=C1CN(C(=O)c2c(F)cc(Br)cc2F)C(c2cc(Br)cs2)N1O (centres unmarked) [Example 52, 1-(4-Bromo-2,6-difluoro-benzoyl)-2-(4-bromo-2-thienyl)-3-hydroxy-imidazolidin-4-one] | ≤ 1000 nM
O=C1CN(C(=O)c2c(F)cccc2F)C(c2cc(Br)cs2)N1O (single isomer, unassigned) [Example 48a, 2-(4-Bromo-2-thienyl)-1-(2,6-difluorobenzoyl)-3-hydroxy-imidazolidin-4-one] | ≤ 1000 nM
NS(=O)(=O)NCC#Cc1cc(F)c(C(=O)N2CC(=O)N(O)C2c2cc(Br)cs2)c(F)c1 (centres unmarked) [Example 80, 2-(4-Bromo-2-thienyl)-1-[2,6-difluoro-4-[3-(sulfamoylamino)prop-1-ynyl]benzoyl]-3-hydroxy-4-oxo-imidazolidine] | ≤ 1000 nM
O=C1CN(C(=O)c2c(F)ccc(C(F)(F)F)c2F)C(c2cc(Br)cs2)N1O (centres unmarked) [Example 76, 2-(4-Bromo-2-thienyl)-1-[2,6-difluoro-3-(trifluoromethyl)benzoyl]-3-hydroxy-imidazolidin-4-one] | ≤ 1000 nM
C[C@@H](c1ccccc1)N1CC(=O)N(O)C1c1cc(Br)cs1 (single isomer, unassigned) [Example 118b] | ≤ 1000 nM
C=Cc1ccc(F)c(C(=O)N2CC(=O)N(O)C2c2cc(Br)cs2)c1F (centres unmarked) [Example 128, 2-(4-Bromo-2-thienyl)-1-(2,6-difluoro-3-vinyl-benzoyl)-3-hydroxy-imidazolidin-4-one] | ≤ 1000 nM
O=C1CN(C(=O)c2c(F)cc(-c3cccs3)cc2F)C(c2cc(Br)cs2)N1O (centres unmarked) [Example 87, 2-(4-Bromo-2-thienyl)-1-[2,6-difluoro-4-(2-thienyl)benzoyl]-3-hydroxy-imidazolidin-4-one] | ≤ 1000 nM
O=C1CN(C(=O)c2c(F)cc(C#CC3CC3)cc2F)C(c2cc(Br)cs2)N1O (centres unmarked) [Example 39, 2-(4-Bromo-2-thienyl)-1-[4-(2-cyclopropylethynyl)-2,6-difluoro-benzoyl]-3-hydroxy-imidazolidin-4-one] | ≤ 1000 nM
O=C1CN(C(=O)c2c(F)cccc2F)C(c2csc(Br)c2)N1O (single isomer, unassigned) [Example 46a, 2-(5-Bromo-3-thienyl)-1-(2,6-difluorobenzoyl)-3-hydroxy-imidazolidin-4-one] | ≤ 5000 nM and 1000 to 5000 nM
O=C1CN(Cc2c(F)cccc2F)C(c2cc(Br)cs2)N1O (single isomer, unassigned) [Example 45a, 2-(4-Bromo-2-thienyl)-1-[(2,6-difluorophenyl)methyl]-3-hydroxy-imidazolidin-4-one] | ≤ 5000 nM and 1000 to 5000 nM
O=C1CN(C(=O)c2c(F)cc(-c3ccccc3)cc2F)C(c2cc(Br)cs2)N1O (centres unmarked) [Example 85, 2-(4-Bromo-2-thienyl)-1-(2,6-difluoro-4-phenyl-benzoyl)-3-hydroxy-imidazolidin-4-one] | ≤ 1000 nM
C#Cc1ccc(F)c(C(=O)N2CC(=O)N(O)C2c2cc(Br)cs2)c1F (centres unmarked) [Example 127, 2-(4-Bromo-2-thienyl)-1-(3-ethynyl-2,6-difluoro-benzoyl)-3-hydroxy-imidazolidin-4-one] | ≤ 1000 nM
O=C1CN(C(=O)c2c(F)cccc2C(F)(F)F)C(c2cc(Br)cs2)N1O (centres unmarked) [Example 11, 2-(4-Bromo-2-thienyl)-1-[2-fluoro-6-(trifluoromethyl)benzoyl]-3-hydroxy-imidazolidin-4-one] | ≤ 5000 nM and 1000 to 5000 nM
O=C1CN(C(=O)c2ccccc2F)C(c2csc(Br)c2)N1O (centres unmarked) [Example 98, 2-(5-Bromo-3-thienyl)-1-(2-fluorobenzoyl)-3-hydroxy-imidazolidin-4-one] | ≤ 1000 nM
CS(=O)(=O)NCc1cc(F)c(C(=O)N2CC(=O)N(O)C2c2cc(Br)cs2)c(F)c1 (centres unmarked) [Example 91, N-[[4-[2-(4-Bromo-2-thienyl)-3-hydroxy-4-oxo-imidazolidine-1-carbonyl]-3,5-difluoro-phenyl]methyl]methanesulfonamide] | ≤ 1000 nM
O=C1CN(Cc2c(F)cccc2F)C(c2cc(Br)cs2)N1O (centres unmarked) [Example 44, 2-(4-Bromo-2-thienyl)-1-[(2,6-difluorophenyl)methyl]-3-hydroxy-imidazolidin-4-one] | ≤ 1000 nM
[2H]c1sc(C2N(O)C(=O)CN2C(=O)c2c(F)cccc2F)cc1Br (centres unmarked) [Example 111, 2-(4-Bromo-5-deuterio-2-thienyl)-1-(2,6-difluorobenzoyl)-3-hydroxy-imidazolidin-4-one] | ≤ 1000 nM
CN(C)c1cc(F)c(C(=O)N2CC(=O)N(O)C2c2cc(Br)cs2)c(F)c1 (centres unmarked) [Example 97, 2-(4-Bromo-2-thienyl)-1-[4-(dimethylamino)-2,6-difluoro-benzoyl]-3-hydroxy-imidazolidin-4-one] | ≤ 5000 nM and 1000 to 5000 nM
O=C1CN(C(=O)c2c(F)cccc2C(F)(F)F)C(c2csc(Br)c2)N1O (centres unmarked) [Example 100, 2-(5-Bromo-3-thienyl)-1-[2-fluoro-6-(trifluoromethyl)benzoyl]-3-hydroxy-imidazolidin-4-one] | ≤ 5000 nM and 1000 to 5000 nM
O=C1CN(C(=O)c2c(F)cc(C#CC3CC3)cc2F)C(c2cc(Br)cs2)N1O (single isomer, unassigned) [Example 47a, 2-(4-Bromo-2-thienyl)-1-[4-(2-cyclopropylethynyl)-2,6-difluoro-benzoyl]-3-hydroxy-imidazolidin-4-one] | ≤ 1000 nM
CS(=O)(=O)Nc1ccc(F)c(C(=O)N2CC(=O)N(O)C2c2cc(Br)cs2)c1F (centres unmarked) [Example 107, N-[3-[2-(4-bromo-2-thienyl)-3-hydroxy-4-oxo-imidazolidine-1-carbonyl]-2,4-difluoro-phenyl]methanesulfonamide] | ≤ 1000 nM
CS(=O)(=O)c1ccc(-c2ccc(C(=O)N3CC(=O)N(O)C3c3cc(Br)cs3)cc2)cc1 (centres unmarked) [Example 71, 2-(4-Bromo-2-thienyl)-3-hydroxy-1-[4-(4-methylsulfonylphenyl)benzoyl]imidazolidin-4-one] | ≤ 5000 nM and 1000 to 5000 nM
[2H]C([2H])([2H])c1sc(C2N(O)C(=O)CN2C(=O)c2c(F)cccc2F)cc1Br (centres unmarked) [Example 114, 2-[4-Bromo-5-(trideuteriomethyl)-2-thienyl]-1-(2,6-difluorobenzoyl)-3-hydroxy-imidazolidin-4-one] | ≤ 1000 nM
O=C1CN(C(=O)c2c(F)cccc2F)C(c2csc([N+](=O)[O-])c2)N1O (centres unmarked) [Example 20, 1-(2,6-Difluorobenzoyl)-3-hydroxy-2-(5-nitro-3-thienyl)imidazolidin-4-one] | ≤ 1000 nM
N#Cc1csc(C2N(O)C(=O)CN2C(=O)c2c(F)cccc2Cl)c1 (centres unmarked) [Example 29, 5-[1-(2-Chloro-6-fluoro-benzoyl)-3-hydroxy-4-oxo-imidazolidin-2-yl]thiophene-3-carbonitrile] | ≤ 5000 nM and 1000 to 5000 nM

same assay, conditions: stated in the synthesis examples; assay not named

SMILES | relative activity of the separated isomers
O=C1CN(C(=O)c2c(F)cccc2F)C(c2cc(Br)cs2)N1O (single isomer, unassigned) [Example 48a, 2-(4-Bromo-2-thienyl)-1-(2,6-difluorobenzoyl)-3-hydroxy-imidazolidin-4-one] | less active isomer
O=C1CN(C(=O)c2c(F)cccc2F)C(c2cc(Br)c(F)s2)N1O (single isomer, unassigned) [Example 110a, 2-(4-Bromo-5-fluoro-2-thienyl)-1-(2,6-difluorobenzoyl)-3-hydroxy-imidazolidin-4-one] | most active isomer
C[C@@H](c1ccccc1)N1CC(=O)N(O)C1c1cc(Br)cs1 (single isomer, unassigned) [Example 118b] | most active isomer
O=C1CN(C(=O)c2c(F)cccc2F)C(c2csc(Br)c2)N1O (single isomer, unassigned) [Example 46a, 2-(5-Bromo-3-thienyl)-1-(2,6-difluorobenzoyl)-3-hydroxy-imidazolidin-4-one] | less active isomer
O=C1CN(Cc2c(F)cccc2F)C(c2cc(Br)cs2)N1O (single isomer, unassigned) [Example 45a, 2-(4-Bromo-2-thienyl)-1-[(2,6-difluorophenyl)methyl]-3-hydroxy-imidazolidin-4-one] | less active isomer
C[C@@H](c1ccccc1)N1CC(=O)N(O)C1c1cc(Br)cs1 (single isomer, unassigned) [Example 118a] | less active isomer
O=C1CN(C(=O)c2c(F)cc(C#CC3CC3)cc2F)C(c2cc(Br)cs2)N1O (single isomer, unassigned) [Example 47a, 2-(4-Bromo-2-thienyl)-1-[4-(2-cyclopropylethynyl)-2,6-difluoro-benzoyl]-3-hydroxy-imidazolidin-4-one] | less active isomer
